Measurements taken from patent publication US5834461A, “Tricyclic benzazepine vasopressin antagonists” (American Cyanamid Company, priority 1997, dated 1998).
Blank lines part the entries; values can stand above or below the molecule they belong to.

What was measured:
[1] = biological target: T1, rat kidney medullary V2 receptors (Rattus norvegicus, UniProt Q00788); assay: Binding Assay to Rat Kidney Medullary V2 Receptors; settings: for IC50: rat kidney medullary V2; for inhibition at 10 µM: rat kidney, read-out: V2, % at concentration in brackets
T1 construct: Medullary tissues from rat kidneys are dissected out; from tissue; host or cells: rat kidney medulla membranes
T1 sequence (Q00788 whole entry): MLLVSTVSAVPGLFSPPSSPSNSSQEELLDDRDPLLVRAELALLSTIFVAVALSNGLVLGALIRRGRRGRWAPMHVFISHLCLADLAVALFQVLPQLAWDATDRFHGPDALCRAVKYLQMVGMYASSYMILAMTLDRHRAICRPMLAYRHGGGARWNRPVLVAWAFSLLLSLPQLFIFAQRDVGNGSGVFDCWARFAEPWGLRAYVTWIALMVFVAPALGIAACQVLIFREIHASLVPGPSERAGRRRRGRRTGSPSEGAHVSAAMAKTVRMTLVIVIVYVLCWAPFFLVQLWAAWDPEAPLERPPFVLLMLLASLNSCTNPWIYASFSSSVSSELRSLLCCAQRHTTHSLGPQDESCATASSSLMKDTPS
In short: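 Competition binding: [3H]AVP at 0.8 nM, test compounds from 50% DMSO, and membranes from rat kidney medulla, left 120 min on the bench. Filtration then liquid scintillation counting measured bound ligand; 1.0 μM unlabeled ligand set non-specific binding.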

vasopressin V1 = assay: Vasopressin V1 Antagonist Activity in Conscious Rats (vasopressin vasopressor response); type: in vivo, rat (spontaneously hypertensive rats); design: Average Change: unit not given here
In short: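 Conscious rats had the ventral caudal tail artery cannulated into the lower abdominal aorta under local procaine anesthesia, plus a caudal vein cannula for intravenous dosing. Pulsatile blood pressure was recorded via a Statham P23Db transducer. Vasopressor responses to vasopressin injections were measured before and after compound dosing, with percent antagonism calculated relative to the pre-drug response taken as 100%.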

vasopressin V2 = assay: Vasopressin V2 Antagonist Activity in Conscious Hydrated Rats (diuretic effect); type: in vivo, normal Sprague-Dawley rats; settings: AVP 0.4 μg/kg i.p.
In short: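 Conscious rats were dosed orally at 0.1–100 mg/kg, and AVP 0.4 μg/kg i.p. in peanut oil followed 1 h later. Urine volume, osmolality and Na/K/Cl were compared against AVP-treated controls, with non-AVP rats as water-loading controls.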

[2] = 10 mg/kg i.v., VAS 0.01 i.u./kg, 30 min
[3] = 10 mg/kg i.v., VAS 0.05 i.u./kg, 30 min
[4] = 10 mg/kg i.v., VAS 0.1 i.u./kg, 30 min
[5] = 20 mg/kg i.v., VAS 0.01 i.u./kg, 60 min
[6] = 20 mg/kg i.v., VAS 0.01 i.u./kg, 300 min
[7] = 20 mg/kg i.v., VAS 0.05 i.u./kg, 60 min
[8] = 20 mg/kg i.v., VAS 0.05 i.u./kg, 90 min
[9] = 20 mg/kg i.v., VAS 0.05 i.u./kg, 120 min
[10] = 20 mg/kg i.v., VAS 0.05 i.u./kg, 180 min
[11] = 20 mg/kg i.v., VAS 0.05 i.u./kg, 240 min
[12] = 20 mg/kg i.v., VAS 0.05 i.u./kg, 300 min
[13] = 20 mg/kg i.v., VAS 0.1 i.u./kg, 60 min
[14] = 20 mg/kg i.v., VAS 0.1 i.u./kg, 90 min
[15] = 20 mg/kg i.v., VAS 0.1 i.u./kg, 120 min
[16] = 20 mg/kg i.v., VAS 0.1 i.u./kg, 180 min
[17] = 20 mg/kg i.v., VAS 0.1 i.u./kg, 240 min
[18] = 20 mg/kg i.v., VAS 0.1 i.u./kg, 300 min
[19] = 50 mg/kg p.o., VAS 0.01 i.u./kg, 30 min
[20] = 50 mg/kg p.o., VAS 0.01 i.u./kg, 60 min
[21] = 50 mg/kg p.o., VAS 0.01 i.u./kg, 90 min
[22] = 50 mg/kg p.o., VAS 0.01 i.u./kg, 120 min
[23] = 50 mg/kg p.o., VAS 0.01 i.u./kg, 180 min
[24] = 50 mg/kg p.o., VAS 0.01 i.u./kg, 240 min
[25] = 50 mg/kg p.o., VAS 0.02 i.u./kg, 30 min
[26] = 50 mg/kg p.o., VAS 0.02 i.u./kg, 60 min
[27] = 50 mg/kg p.o., VAS 0.02 i.u./kg, 90 min
[28] = 50 mg/kg p.o., VAS 0.02 i.u./kg, 120 min
[29] = 50 mg/kg p.o., VAS 0.02 i.u./kg, 180 min
[30] = 50 mg/kg p.o., VAS 0.02 i.u./kg, 240 min

- IC50 [1]: 11.3 nM
SMILES: Cc1ccc(F)cc1C(=O)Nc1ccc(C(=O)N2CCc3c[nH]nc3-c3ccccc32)c(Cl)c1 [Example 581]

- IC50 [1]: 39 nM
SMILES: O=C(Nc1ccc(C(=O)N2Cc3ccccc3Cc3ccccc32)cc1)C1CC=CCC1 (centres unmarked) [Example 255, N-[4-[(6,11-Dihydro-5H-dibenz[b,e]azepin-5-yl)-carbonyl]phenyl]-3-cyclohexene-1-carboxamide]
- MAX % Inhibition (vasopressin V1; 10 mg/kg i.v.): 65%
- Time of max % inhibition (vasopressin V1; 10 mg/kg i.v.): 60 min
- Osmolality (vasopressin V2; 30 mg/kg orally): 1456 mOsm/kg
- Urine Volume (vasopressin V2; 30 mg/kg orally): 2.3 ml/4 hrs.

SMILES: COc1cc(C(=O)N2Cc3ccccc3Cc3ccccc32)ccc1NC(=O)c1ccccc1C [Example 257, N-[4-[(6,11-Dihydro-5H-dibenz[b,e]azepin-5-yl)-carbonyl]-2-methoxyphenyl]-2-methylbenzamide]
- MAX % Inhibition (vasopressin V1; 10 mg/kg i.v.): 71%
- Time of max % inhibition (vasopressin V1; 10 mg/kg i.v.): 60 min
- Osmolality (vasopressin V2; 10 mg/kg orally): 434 mOsm/kg
- Urine Volume (vasopressin V2; 10 mg/kg orally): 11.8 ml/4 hrs.

SMILES: COc1cc(C(=O)N2Cc3ccccc3Cc3ccccc32)ccc1NC(=O)c1ccc(Cl)cc1Cl [Example 263, N-[4-[(6,11-Dihydro-5H-dibenz[b,e]azepin-5-yl)-carbonyl]-2-methoxyphenyl]-2,4-dichlorobenzamide]
- MAX % Inhibition (vasopressin V1; 10 mg/kg i.v.): 55%
- Time of max % inhibition (vasopressin V1; 10 mg/kg i.v.): 90 min

SMILES: Cc1nc2c(s1)CCN(C(=O)c1ccc(NC(=O)c3ccc(Cl)cc3Cl)cc1)c1ccccc1-2 [Example 455, N-[4-(4,5-Dihydro-2-methyl-6H-thiazolo[5,4-d][1]-benzazepin-6-yl)carbonyl1phenyl]-2,4-dichlorobenzamide]
- MAX % Inhibition (vasopressin V1; 30 mg/kg i.v.): 46%
- Time of max % inhibition (vasopressin V1; 30 mg/kg i.v.): 120 min
- Osmolality (vasopressin V2; 10 mg/kg orally): 420 mOsm/kg
- Urine Volume (vasopressin V2; 10 mg/kg orally): 13.5 ml/4 hrs.

- IC50 [1]: 11 nM
SMILES: Cc1ccc(F)cc1C(=O)Nc1ccc(C(=O)N2CCc3c[nH]nc3-c3ccccc32)cc1 [Example 584, N-[4-[(4.5-Dihydropyrazolo[4,3-d][1]benzazepin-6(2H)-yl)carbonyl]phenyl]-5-fluoro-2-methylbenzamide]

- IC50 [1]: 190 nM
SMILES: O=C(Nc1ccc(C(=O)N2Cc3ccccc3Cc3ccccc32)cc1)c1cccc(Cl)c1Cl [Example 253, N-[4-[(6,11-Dihydro-5H-dibenz[b,e]azepin-5-yl)-carbonyl]phenyl]-2,3-dichlorobenzamide]
- MAX % Inhibition (vasopressin V1; 30 mg/kg i.v.): 57%
- Time of max % inhibition (vasopressin V1; 30 mg/kg i.v.): 180 min
- Osmolality (vasopressin V2; 10 mg/kg orally): 837 mOsm/kg
- Urine Volume (vasopressin V2; 10 mg/kg orally): 6 ml/4 hrs.

SMILES: COc1cc(C(=O)N2Cc3ccccc3Cc3ccccc32)ccc1NC(=O)c1cc(F)ccc1C [Example 261, N-[4-[(6,11-Dihydro-5H-dibenz[b,e]azepin-5-yl)-carbonyl]-2-methoxyphenyl]-2-methyl-5-fluorobenzamide]
- MAX % Inhibition (vasopressin V1; 10 mg/kg i.v.): 74%
- Time of max % inhibition (vasopressin V1; 10 mg/kg i.v.): 60 min
- Osmolality (vasopressin V2; 10 mg/kg orally): 1337 mOsm/kg
- Urine Volume (vasopressin V2; 10 mg/kg orally): 3.8 ml/4 hrs.

SMILES: Cc1c(F)cccc1C(=O)Nc1ccc(C(=O)N2Cc3ccccc3Cc3ccccc32)cc1Cl [Example 262, N-[4-[(6,11-Dihydro-5H-dibenz[b,e]azepin-5-yl)-carbonyl]-2-chlorophenyl]-2-methyl-3-fluorobenzamide]
- Osmolality (vasopressin V2; 10 mg/kg orally): 899 mOsm/kg
- Urine Volume (vasopressin V2; 10 mg/kg orally): 6.8 ml/4 hrs.

- inhibition at 10 µM [1]: 26%
SMILES: CC(C)COc1ccc([N+](=O)[O-])cc1C(=O)Nc1ccc(C(=O)N2Cc3ccccc3Cc3ccccc32)cc1 [Example 453]
- Osmolality (vasopressin V2; 10 mg/kg orally): 776 mOsm/kg
- Urine Volume (vasopressin V2; 10 mg/kg orally): 9.4 ml/4 hrs.

- IC50 [1]: 29 nM
SMILES: Cc1ccccc1C(=O)Nc1ccc(C(=O)N2Cc3ccccc3-c3ccccc32)cc1 [Example 5, 2-Methyl-N-[4-[(5(6H)-phenanthridinyl)carbonyl]phenyl]benzamide]
- Average Change (vasopressin V1; [2]): 35
- Inhibition (vasopressin V1; [2]): 22%
- Average Change (vasopressin V1; [3]): 30
- Inhibition (vasopressin V1; [3]): -9%
- Average Change (vasopressin V1; [4]): 35
- Inhibition (vasopressin V1; [4]): 22%
- Average Change (vasopressin V1; [5]): 17.5
- Inhibition (vasopressin V1; [5]): 61%
- Average Change (vasopressin V1; [6]): 30
- Inhibition (vasopressin V1; [6]): 33%
- Average Change (vasopressin V1; [7]): 10
- Inhibition (vasopressin V1; [7]): 64%
- Average Change (vasopressin V1; [8]): 10
- Inhibition (vasopressin V1; [8]): 64%
- Average Change (vasopressin V1; [9]): 15
- Inhibition (vasopressin V1; [9]): 45%
- Average Change (vasopressin V1; [10]): 12.5
- Inhibition (vasopressin V1; [10]): 55%
- Average Change (vasopressin V1; [11]): 17.5
- Inhibition (vasopressin V1; [11]): 36%
- Average Change (vasopressin V1; [12]): 22.5
- Inhibition (vasopressin V1; [12]): 18%
- Average Change (vasopressin V1; [13]): 17.5
- Inhibition (vasopressin V1; [13]): 61%
- Average Change (vasopressin V1; [14]): 20
- Inhibition (vasopressin V1; [14]): 56%
- Average Change (vasopressin V1; [15]): 17.5
- Inhibition (vasopressin V1; [15]): 61%
- Average Change (vasopressin V1; [16]): 20
- Inhibition (vasopressin V1; [16]): 56%
- Average Change (vasopressin V1; [17]): 25
- Inhibition (vasopressin V1; [17]): 44%
- Average Change (vasopressin V1; [18]): 30
- Inhibition (vasopressin V1; [18]): 33%
- Average Change (vasopressin V1; [19]): 22.5
- Inhibition (vasopressin V1; [19]): 10%
- Average Change (vasopressin V1; [20]): 30
- Inhibition (vasopressin V1; [20]): -20%
- Average Change (vasopressin V1; [21]): 17.5
- Inhibition (vasopressin V1; [21]): 30%
- Average Change (vasopressin V1; [22]): 30
- Inhibition (vasopressin V1; [22]): -20%
- Average Change (vasopressin V1; [23]): 20
- Inhibition (vasopressin V1; [23]): 20%
- Average Change (vasopressin V1; [24]): 22.5
- Inhibition (vasopressin V1; [24]): 10%
- Average Change (vasopressin V1; [25]): 35
- Inhibition (vasopressin V1; [25]): 0%
- Average Change (vasopressin V1; [26]): 35.5
- Inhibition (vasopressin V1; [26]): 7%
- Average Change (vasopressin V1; [27]): 32.5
- Inhibition (vasopressin V1; [27]): 7%
- Average Change (vasopressin V1; [28]): 40
- Inhibition (vasopressin V1; [28]): -14%
- Average Change (vasopressin V1; [29]): 37.5
- Inhibition (vasopressin V1; [29]): -7%
- Average Change (vasopressin V1; [30]): 38.5
- Inhibition (vasopressin V1; [30]): -10%
- Osmolality (vasopressin V2; 10 mg/kg orally): 1137 mOsm/kg
- Urine Volume (vasopressin V2; 10 mg/kg orally): 2 ml/4 hrs.

- IC50 [1]: 140 nM
SMILES: O=C(Nc1ccc(C(=O)N2Cc3ccccc3Cc3ccccc32)cc1)c1cc(Cl)cc(Cl)c1 [Example 251, N-(4-[(6,11-Dihydro-5H-dibenz[b,e]azepin-5-yl)-carbonyl]phenyl]-3,5-dichlorobenzamide]
- MAX % Inhibition (vasopressin V1; 30 mg/kg i.v.): 41%
- Time of max % inhibition (vasopressin V1; 30 mg/kg i.v.): 60 min
- Osmolality (vasopressin V2; 10 mg/kg orally): 835 mOsm/kg
- Urine Volume (vasopressin V2; 10 mg/kg orally): 7.5 ml/4 hrs.

- IC50 [1]: 190 nM
SMILES: O=C(Nc1ccc(C(=O)N2Cc3ccccc3Sc3ccccc32)cc1)c1ccccc1Cl [Example 448, N-[4-[(Dibenz[b,f][1,4]thiazepin-10(11H)yl)-carbonyl]phenyl]-2-chlorobenzamide]
- MAX % Inhibition (vasopressin V1; 30 mg/kg i.v.): 60%
- Time of max % inhibition (vasopressin V1; 30 mg/kg i.v.): 90 min
- Osmolality (vasopressin V2; 30 mg/kg orally): 1084 mOsm/kg
- Urine Volume (vasopressin V2; 30 mg/kg orally): 4.8 ml/4 hrs.

- inhibition at 10 µM [1]: 87%
SMILES: Cc1ccccc1C(=O)Nc1c(C)cc(C(=O)N2Cc3ccccc3Cc3ccccc32)cc1C [Example 258, N-[4-[(6,11-Dihydro-5H-dibenz[b,e]azepin-5-yl)-carbonyl]-2,6-dimethylphenyl]-2-methylbenzamide]
- MAX % Inhibition (vasopressin V1; 30 mg/kg i.v.): 61%
- Time of max % inhibition (vasopressin V1; 30 mg/kg i.v.): 60 min

- IC50 [1]: 68 nM
SMILES: Cc1ccccc1C(=O)Nc1ccc(C(=O)N2Cc3ccccc3Cc3ccccc32)cc1 [Example 2, N-[4-[(6,11-Dihydro-5H-dibenz[b,e]azepin-5-yl)carbonyl]phenyl]-2-methylbenzamide]
- MAX % Inhibition (vasopressin V1; 10 mg/kg p.o.): 65%
- Time of max % inhibition (vasopressin V1; 10 mg/kg p.o.): 180 min
- Osmolality (vasopressin V2; 3 mg/kg orally): 1235 ± 162 mOsm/kg
- Urine Volume (vasopressin V2; 3 mg/kg orally): 2.9 ± 0.5 ml/4 hrs.
- Osmolality (vasopressin V2; 10 mg/kg orally): 408 ± 34 mOsm/kg
- Urine Volume (vasopressin V2; 10 mg/kg orally): 15.2 ± 2.4 ml/4 hrs.
- Osmolality (vasopressin V2; 30 mg/kg orally): 401 ± 49 mOsm/kg
- Urine Volume (vasopressin V2; 30 mg/kg orally): 18.9 ± 1.7 ml/4 hrs.

SMILES: Cc1nc2c(s1)CCN(C(=O)c1ccc(NC(=O)c3cc(F)ccc3C)cc1)c1ccccc1-2 [Example 534]
- Osmolality (vasopressin V2; 10 mg/kg orally): 695 mOsm/kg
- Urine Volume (vasopressin V2; 10 mg/kg orally): 10.6 ml/4 hrs.
